Reference: patent publication US20260284153A1, “COMPOSITION COMPRISING GV1001 FOR PREVENTING OR TREATING PERIODONTAL DISEASES AND DISORDERS CAUSED BY PERIODONTAL DISEASES” (GEMVAX & KAEL CO., LTD., priority 2023, published 2026)

Legend:
[1] = system: Porphyromonas gingivalis-induced periodontitis; assay: Periodontitis efficacy in Pg-treated, ligature-placed, high-fat-diet ApoE-/- mouse model; type: in vivo, ApoE−/− mice (C57BL/6 background)
Description: (§1) An animal model was created using ApoE^−/^− mice (C57BL/6 background, male, 4 weeks old).
(§2) Animal models were fed with a high-fat diet (HFD), and a 6-0 silk ligature was placed around the maxillary second molar to create a gingival pocket using the ligature placement method for 1 week, followed by treatment with Porphyromonas gingivalis (Pg) or PBS for 5 weeks.
(§3) The depth of the periodontal pocket, the expression level of inflammatory cytokines in the gingival tissue (mRNA level, IF staining), the aggregation of Porphyromonas gingivalis, Porphyromonas gingivalis LPS, Kgp and RgpB in the gingival tissue, the amount of alveolar bone loss, and the number of osteoclasts in the alveolar bone were determined. Further, the effect on osteoclastogenesis was confirmed in an in vitro test.

Raw264.7 = assay: In vitro osteoclastogenesis of macrophage cell line induced into osteoclasts; type: cell-based; conditions: Raw264.7 induced into osteoclasts; FIGS. 6A to 6E
Method: as §3
To confirm the efficacy of GV1001 on alveolar bone loss, μCT was used to determine alveolar bone loss in a periodontitis-induced animal model (FIGS. 4A to 4C), and the number of osteoclasts in the alveolar bone was determined by TRAP staining (FIGS. 5A and 5B).

[2] = system: atherosclerosis induced by periodontitis; assay: Periodontitis-related atherosclerosis efficacy in Pg-treated ApoE-/- mouse model; type: in vivo, ApoE−/− mice (C57BL/6 background); conditions: GV1001 2 mg/kg i.p., vs control
Description: as §1, §2
(§4) The expression levels of inflammatory cytokines in serum and arterial tissue, the aggregation of Porphyromonas gingivalis, Porphyromonas gingivalis LPS, Kgp and RgpB in arterial tissue, changes in cholesterol levels in serum, and lipid deposition (atherosclerosis) in the arterial wall were determined. In vitro, inhibition of EndMT and inhibition of macrophage uptake of dil-ox-LDL were evaluated. Further, the CD47 expression levels were determined in the aortic root in vivo and in vitro.

[3] = system: human umbilical vein endothelial cells (HUVECs); assay: EndMT of HUVECs stimulated with TNF-α and Porphyromonas gingivalis LPS; type: cell-based; conditions: FIGS. 13A, 13B
Method: as §4
It is known that when endothelial cells (ECs) change their phenotype into mesenchymal cells (MCs) through endothelial-to-mesenchymal transition (EndMT), it induces various vascular diseases (atherosclerosis, pulmonary hypertension, fibrosis, etc.). TNF-α is known as a cytokine involved in this process. In the present invention, it was confirmed that when human umbilical vein endothelial cells (HUVECs) were stimulated with TNF-α and Porphyromonas gingivalis LPS, ECs (marker; CD31) were decreased while MCs (marker; FSP-1) were increased due to EndMT (FIGS. 13A and 13B). • Control group: EndMT of HUVECs was confirmed to progress by TNF-α and Porphyromonas gingivalis LPS. • GV1001 administration group: The EndMT progression of HUVECs was confirmed to be inhibited by GV1001. […]

[4] = system: macrophages differentiated from THP-1 (human monocyte cell line) cells; assay: ox-LDL uptake by macrophages differentiated from THP-1 cells; type: cell-based; conditions: induced by TNF-α and Porphyromonas gingivalis LPS; THP-1-derived macrophages; FIGS. 14A, 14B
Method: as §4
It is known that the formation of foam cells by macrophages in response to LDL and TNF-α is an important process in atherosclerosis. […] As a result, this means that the inhibition of atherogenesis by GV1001 is partly due to its inhibitory effect on foam cell formation.

[5] = system: CD47 in human coronary artery smooth muscle cells (HCASMC); assay: CD47 expression in HCASMC treated with TNF-α and Porphyromonas gingivalis LPS; type: cell-based; conditions: TNF-α and Porphyromonas gingivalis LPS treatment; FIGS. 16A to 16F
Method: as §4
CD47, a representative anti-phagocytic factor, is known to interfere with the removal of cancer cells by macrophages, and overexpression of CD47 is known to cause atherosclerosis. In the present invention, the expression level of CD47 in the aortic root was confirmed in an animal model of periodontitis induction (FIGS. 15A and 15B). […] 2.3 Effect of GV1001 in Alzheimer's Disease Associated with Periodontitis

[6] = system: Alzheimer's disease induced by periodontitis; assay: Periodontitis-related Alzheimer's disease efficacy in Pg-treated ApoE-/- mouse model; type: in vivo, ApoE−/− mice (C57BL/6 background); conditions: GV1001 2 mg/kg i.p., vs control
Description: as §1, §2
The expression levels of inflammatory cytokines, the aggregation of Porphyromonas gingivalis, Porphyromonas gingivalis LPS and Kgp, RgpB, and the accumulation of Aβ42 and p-Tau in brain tissue were confirmed.

[7] = system: gingipain (RgpA, RgpB, Kgp); assay: In vitro expression of gingipain in Porphyromonas gingivalis; type: cell-based; conditions: FIG. 23
Method: To understand the fundamental mechanism of Porphyromonas gingivalis colony formation, and the reduction of Porphyromonas gingivalis LPS and gingipain by GV1001 in gingival tissues, arterial walls and brain, the effect of GV1001 on the expression of gingipain, which is an enzyme important for the growth and tissue invasion of Porphyromonas gingivalis, was investigated. […] Very low doses (5-30 μM) of GV1001 reduced the expression of RgpA and RgpB by approximately 5 times and the expression of Kgp by approximately 3 times, compared with the control group (Porphyromonas gingivalis 16S IRNA) (FIG. 23).

[8] = GV1001 2 mg/kg i.p., vs control, FIGS. 3A, 3B
[9] = 5-30 μM GV1001, compared with the control group (Porphyromonas gingivalis 16S IRNA)

Substance: GV1001: peptide consisting of 16 amino acids, SEQ ID NO: 1, derived from human telomerase reverse transcriptase (hTERT) (EARPALLTSRLRFIPK; UniProt O14746 611-626, looked up, fragment)
- inflammatory cytokine (IL-1β, TNF-α, IL-6) mRNA levels in periodontal tissue ([1]; GV1001 2 mg/kg i.p. 3 times/week for 10 weeks, vs periodontitis control, FIG. 1): significantly reduced
- inflammatory cytokines (IL-1β, TNF-α, IL-6, GM-CSF, VEGF, IL-17, KC) in serum ([1]; GV1001 2 mg/kg i.p., all cytokines, vs control, FIGS. 7A, 7B): significantly suppressed
- Porphyromonas gingivalis LPS in gingival tissue [1, 8]: significantly reduced
- gingipain (Kgp, RgpB) in gingival tissue [1, 8]: significantly reduced
- number of Porphyromonas gingivalis colonies in gingival tissue [1, 8]: significantly reduced
- alveolar bone loss (μCT) ([1]; GV1001 2 mg/kg i.p., vs control, FIGS. 4A to 4C): significantly reduced
- osteoclastogenesis in alveolar bone (number of osteoclasts, TRAP staining) ([1]; GV1001 2 mg/kg i.p., vs control, FIGS. 5A, 5B): significantly inhibited
- inflammatory cytokine expression in periodontal tissue by fluorescent staining ([1]; GV1001 2 mg/kg i.p., vs periodontitis control, FIGS. 2A, 2B): decrease in cytokine expression was confirmed
- osteoclastogenesis in vitro (Raw264.7): significantly inhibited
- inflammatory cytokine (IL-1β, TNF-α, IL-6) mRNA levels in arterial tissue ([2]; FIG. 8): significantly reduced
- inflammatory cytokine expression in arterial tissue by fluorescent staining ([2]; FIGS. 9A, 9B): decrease in cytokine expression was confirmed
- Porphyromonas gingivalis LPS in the arterial wall ([2]; FIGS. 10A, 10B): significantly reduced
- gingipain (Kgp, RgpB) in the arterial wall ([2]; FIGS. 10A, 10B): significantly reduced
- number of Porphyromonas gingivalis colonies in the arterial wall ([2]; FIGS. 10A, 10B): significantly reduced
- level of low-density lipoprotein (LDL) in serum ([2]; FIGS. 11A, 11B): significantly reduced
- level of total cholesterol (TC) in serum ([2]; FIGS. 11A, 11B): significantly reduced
- expression level of CD47 in the aortic root ([2]; FIGS. 15A, 15B): significantly reduced
- intravascular lipid deposition, wall of the aorta-iliac bifurcation ([2]; Sudan IV and Oil Red O staining, FIGS. 12A, 12B): significantly suppressed
- EndMT progression of HUVECs (CD31, FSP-1 markers) [3]: inhibited
- ox-LDL uptake [4]: significantly inhibited
- expression level of CD47 in HCASMC [5]: significantly reduced
- inflammatory cytokine (IL-1β, TNF-α, IL-6) mRNA levels in brain tissue ([6]; FIG. 17): significantly reduced
- inflammatory cytokine expression in brain tissue by fluorescent staining ([6]; FIGS. 18A to 19B): decrease in cytokine expression was confirmed
- Porphyromonas gingivalis LPS in the cerebral cortex and hippocampus ([6]; FIGS. 20A to 21B): significantly reduced
- gingipain (Kgp, RgpB) in the cerebral cortex and hippocampus ([6]; FIGS. 20A to 21B): significantly reduced
- number of Porphyromonas gingivalis colonies in the cerebral cortex and hippocampus ([6]; FIGS. 20A to 21B): significantly reduced
- accumulation of Aβ42 in the cerebral cortex and hippocampus ([6]; FIGS. 22A, 22B): significantly reduced
- accumulation of p-Tau in the cerebral cortex and hippocampus ([6]; FIGS. 22A, 22B): significantly reduced
- reduction of expression of Kgp [7, 9]: approximately 3 times
- reduction of expression of RgpA [7, 9]: approximately 5 times
- reduction of expression of RgpB [7, 9]: approximately 5 times
- expression of gingipain in vitro [7]: markedly inhibited
